These results are taken from patent US6582717B1, “Drug delivery composition and device” (Massachusetts Institute of Technology, priority 2000, dated 2003).

This data set in a line: Encapsulation efficiency of drug in PLGA / cyclodextrin delivery matrix. The data set is classed as physicochemical.
The mark [1] stands for this setting: PLGA and Hydroxy-propyl β-Cyclodextrin.
Where [2] appears, read: PLGA and Methylated β-Cyclodextrin.

SMILES strings stand for the structures.

For the compound `[H]/N=C(\N/C(=N/[H])NCCCCCCNC(=N)NC(=N)Nc1ccc(Cl)cc1)Nc1ccc(Cl)cc1` [Chx, chlorhexidine], the “Encapsulation Efficiency (%)” value is “(9.28%)” (PGLA, no cyclodextrin); “(15.1%)” under setting [1]; “(9.02%)” under setting [2]. For the same compound, the “Encapsulation Efficiency (amount encapsulated)” value (PGLA, no cyclodextrin) was 185.7 µg; the “Encapsulation Efficiency (amount encapsulated)” value under setting [1] was determined as 302.8 µg; the “Encapsulation Efficiency (amount encapsulated)” value under setting [2] stood at 180.5 µg.

For the compound `N=C(NCCCCCCNC(=N)NC(=N)Nc1ccc(Cl)cc1)NC(=N)Nc1ccc(Cl)cc1.O=C(O)[C@H](O)[C@@H](O)[C@H](O)[C@H](O)CO.O=C(O)[C@H](O)[C@@H](O)[C@H](O)[C@H](O)CO` [ChxDg, chlorhexidine digluconate], the “Encapsulation Efficiency (%)” value is recorded as “(10.2%)” (PGLA, no cyclodextrin); “(6.1%)” under setting [1]; “(11.5%)” under setting [2]. Also, the “Encapsulation Efficiency (amount encapsulated)” value (PGLA, no cyclodextrin) was determined as 204.7 µg; the “Encapsulation Efficiency (amount encapsulated)” value under setting [1] came out at 121.2 µg; the “Encapsulation Efficiency (amount encapsulated)” value under setting [2] was found to be 230.3 µg.
